Measured values as given in publication PMC6886798, “Expression of myeloid Src-family kinases is associated with poor prognosis in AML and influences Flt3-ITD kinase inhibitor acquired resistance” (PLoS ONE, 2019).

Experiments:
Assay in all cases: KINOMEscan
Assay type in all cases: binding
Conditions in all cases: 1.0 µM
[1] = target: T1, ACVR1B (Homo sapiens, UniProt P36896)
T1 construct: purchased Eurofins/DiscoverX KINOMEscan scanMAX
Method: (§1) Kinase retention to the immobilized ligand is then measured using quantitative real-time PCR for each kinase-specific DNA barcode.

[2] = target: T2, AKT2 (Homo sapiens, UniProt P31751)
T2 construct: purchased Eurofins/DiscoverX KINOMEscan scanMAX
Method: as §1

[3] = target: T3, AMPK-alpha1 (Homo sapiens, UniProt Q13131)
T3 construct: purchased Eurofins/DiscoverX KINOMEscan scanMAX
Method: as §1

[4] = target: T4, AURKA (Homo sapiens, UniProt O14965)
T4 construct: purchased Eurofins/DiscoverX KINOMEscan scanMAX
Method: as §1

[5] = target: T5, BMPR1A (Homo sapiens, UniProt P36894)
T5 construct: purchased Eurofins/DiscoverX KINOMEscan scanMAX
Method: as §1

[6] = target: T6, BMX (Homo sapiens, UniProt P51813)
T6 construct: purchased Eurofins/DiscoverX KINOMEscan scanMAX
Method: as §1

[7] = target: T7, BRAF (Homo sapiens, UniProt P15056)
T7 construct: purchased Eurofins/DiscoverX KINOMEscan scanMAX
Method: as §1

[8] = target: T8, CAMK1D (Homo sapiens, UniProt Q8IU85)
T8 construct: purchased Eurofins/DiscoverX KINOMEscan scanMAX
Method: as §1

[9] = target: T9, CSNK1G2 (Homo sapiens, UniProt P78368)
T9 construct: purchased Eurofins/DiscoverX KINOMEscan scanMAX
Method: as §1

[10] = target: T10, DAPK3 (Homo sapiens, UniProt O43293)
T10 construct: purchased Eurofins/DiscoverX KINOMEscan scanMAX
Method: as §1

[11] = target: T11, DYRK1B (Homo sapiens, UniProt Q9Y463)
T11 construct: purchased Eurofins/DiscoverX KINOMEscan scanMAX
Method: as §1

[12] = target: T12, DYRK2 (Homo sapiens, UniProt Q92630)
T12 construct: purchased Eurofins/DiscoverX KINOMEscan scanMAX
Method: as §1

[13] = target: T13, EIF2AK1 (Homo sapiens, UniProt Q9BQI3)
T13 construct: purchased Eurofins/DiscoverX KINOMEscan scanMAX
Method: as §1

[14] = target: T14, ERN1 (Homo sapiens, UniProt O75460)
T14 construct: purchased Eurofins/DiscoverX KINOMEscan scanMAX
Method: as §1

[15] = target: T15, FGFR4 (Homo sapiens, UniProt P22455)
T15 construct: purchased Eurofins/DiscoverX KINOMEscan scanMAX
Method: as §1

[16] = target: T16, FLT3(D835V) (Homo sapiens, UniProt P36888, D835V)
T16 construct: purchased Eurofins/DiscoverX KINOMEscan scanMAX
Method: as §1

[17] = target: T17, FLT3-autoinhibited (Homo sapiens, UniProt P36888)
T17 construct: purchased Eurofins/DiscoverX KINOMEscan scanMAX
Method: as §1

[18] = target: T18, GCN2(Kin.Dom.2,S808G) (Homo sapiens, UniProt Q9P2K8, S808G)
T18 construct: GCN2(Kin.Dom.2,S808G); purchased Eurofins/DiscoverX KINOMEscan scanMAX
Method: as §1

[19] = target: T19, KIT(V559D) (Homo sapiens, UniProt P10721, V559D)
T19 construct: purchased Eurofins/DiscoverX KINOMEscan scanMAX
Method: as §1

[20] = target: T20, MAP3K1 (Homo sapiens, UniProt Q13233)
T20 construct: purchased Eurofins/DiscoverX KINOMEscan scanMAX
Method: as §1

[21] = target: T21, MET (Homo sapiens, UniProt P08581)
T21 construct: purchased Eurofins/DiscoverX KINOMEscan scanMAX
Method: as §1

[22] = target: T22, MET(Y1235D) (Homo sapiens, UniProt P08581, Y1235D)
T22 construct: purchased Eurofins/DiscoverX KINOMEscan scanMAX
Method: as §1

[23] = target: T23, MRCKA (Homo sapiens, UniProt Q5VT25)
T23 construct: purchased Eurofins/DiscoverX KINOMEscan scanMAX
Method: as §1

[24] = target: T24, MST1 (Homo sapiens, UniProt Q13043)
T24 construct: purchased Eurofins/DiscoverX KINOMEscan scanMAX
Method: as §1

[25] = target: T25, NEK3 (Homo sapiens, UniProt P51956)
T25 construct: purchased Eurofins/DiscoverX KINOMEscan scanMAX
Method: as §1

[26] = target: T26, PAK1 (Homo sapiens, UniProt Q13153)
T26 construct: purchased Eurofins/DiscoverX KINOMEscan scanMAX
Method: as §1

[27] = target: T27, PAK6 (Homo sapiens, UniProt Q9NQU5)
T27 construct: purchased Eurofins/DiscoverX KINOMEscan scanMAX
Method: as §1

[28] = target: T28, PCTK2 (Homo sapiens, UniProt Q00537)
T28 construct: purchased Eurofins/DiscoverX KINOMEscan scanMAX
Method: as §1

[29] = target: T29, PCTK3 (Homo sapiens, UniProt Q07002)
T29 construct: purchased Eurofins/DiscoverX KINOMEscan scanMAX
Method: as §1

[30] = target: T30, PFTAIRE2 (Homo sapiens, UniProt Q96Q40)
T30 construct: purchased Eurofins/DiscoverX KINOMEscan scanMAX
Method: as §1

[31] = target: T31, PIM3 (Homo sapiens, UniProt Q86V86)
T31 construct: purchased Eurofins/DiscoverX KINOMEscan scanMAX
Method: as §1

[32] = target: T32, PIP5K2B (Homo sapiens, UniProt P78356)
T32 construct: purchased Eurofins/DiscoverX KINOMEscan scanMAX
Method: as §1

[33] = target: T33, RET(V804L) (Homo sapiens, UniProt P07949, V804L)
T33 construct: purchased Eurofins/DiscoverX KINOMEscan scanMAX
Method: as §1

[34] = target: T34, RPS6KA5(Kin.Dom.1-N-terminal) (Homo sapiens, UniProt O75582)
T34 construct: RPS6KA5(Kin.Dom.1-N-terminal); purchased Eurofins/DiscoverX KINOMEscan scanMAX
Method: as §1

[35] = target: T35, SRC (Homo sapiens, UniProt P12931)
T35 construct: purchased Eurofins/DiscoverX KINOMEscan scanMAX
Method: as §1

[36] = target: T36, SRPK1 (Homo sapiens, UniProt Q96SB4)
T36 construct: purchased Eurofins/DiscoverX KINOMEscan scanMAX
Method: as §1

[37] = target: T37, STK35 (Homo sapiens, UniProt Q8TDR2)
T37 construct: purchased Eurofins/DiscoverX KINOMEscan scanMAX
Method: as §1

[38] = target: T38, STK39 (Homo sapiens, UniProt Q9UEW8)
T38 construct: purchased Eurofins/DiscoverX KINOMEscan scanMAX
Method: as §1

[39] = target: T39, SYK (Homo sapiens, UniProt P43405)
T39 construct: purchased Eurofins/DiscoverX KINOMEscan scanMAX
Method: as §1

[40] = target: T40, TIE2 (Homo sapiens, UniProt Q02763)
T40 construct: purchased Eurofins/DiscoverX KINOMEscan scanMAX
Method: as §1

[41] = target: T41, VPS34 (Homo sapiens, UniProt Q8NEB9)
T41 construct: DNA tag (qPCR barcode); purchased Eurofins/DiscoverX KINOMEscan scanMAX
Method: as §1

T41 sequence (Q8NEB9 whole entry): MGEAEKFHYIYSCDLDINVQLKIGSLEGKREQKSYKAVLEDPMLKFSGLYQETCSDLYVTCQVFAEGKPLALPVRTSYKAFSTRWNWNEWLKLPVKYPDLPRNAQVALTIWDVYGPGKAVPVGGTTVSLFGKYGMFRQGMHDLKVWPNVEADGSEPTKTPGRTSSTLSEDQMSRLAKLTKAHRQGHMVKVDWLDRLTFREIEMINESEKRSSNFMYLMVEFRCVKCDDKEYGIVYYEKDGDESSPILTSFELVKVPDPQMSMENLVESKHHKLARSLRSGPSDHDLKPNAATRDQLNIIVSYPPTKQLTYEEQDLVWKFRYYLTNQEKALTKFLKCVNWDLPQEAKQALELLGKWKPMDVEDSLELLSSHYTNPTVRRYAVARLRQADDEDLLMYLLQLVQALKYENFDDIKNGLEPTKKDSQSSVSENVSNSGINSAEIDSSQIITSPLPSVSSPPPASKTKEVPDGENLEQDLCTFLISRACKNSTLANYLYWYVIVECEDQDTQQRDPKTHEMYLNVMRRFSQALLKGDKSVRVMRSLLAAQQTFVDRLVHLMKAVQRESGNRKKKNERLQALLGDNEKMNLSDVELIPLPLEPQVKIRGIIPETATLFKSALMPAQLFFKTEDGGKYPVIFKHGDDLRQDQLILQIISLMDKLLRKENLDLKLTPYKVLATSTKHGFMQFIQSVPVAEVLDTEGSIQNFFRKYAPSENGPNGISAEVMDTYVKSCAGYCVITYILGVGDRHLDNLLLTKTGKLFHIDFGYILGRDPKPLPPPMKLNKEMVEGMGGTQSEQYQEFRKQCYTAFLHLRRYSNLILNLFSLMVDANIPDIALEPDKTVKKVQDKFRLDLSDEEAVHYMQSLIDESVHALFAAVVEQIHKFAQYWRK
T36 sequence (Q96SB4 whole entry): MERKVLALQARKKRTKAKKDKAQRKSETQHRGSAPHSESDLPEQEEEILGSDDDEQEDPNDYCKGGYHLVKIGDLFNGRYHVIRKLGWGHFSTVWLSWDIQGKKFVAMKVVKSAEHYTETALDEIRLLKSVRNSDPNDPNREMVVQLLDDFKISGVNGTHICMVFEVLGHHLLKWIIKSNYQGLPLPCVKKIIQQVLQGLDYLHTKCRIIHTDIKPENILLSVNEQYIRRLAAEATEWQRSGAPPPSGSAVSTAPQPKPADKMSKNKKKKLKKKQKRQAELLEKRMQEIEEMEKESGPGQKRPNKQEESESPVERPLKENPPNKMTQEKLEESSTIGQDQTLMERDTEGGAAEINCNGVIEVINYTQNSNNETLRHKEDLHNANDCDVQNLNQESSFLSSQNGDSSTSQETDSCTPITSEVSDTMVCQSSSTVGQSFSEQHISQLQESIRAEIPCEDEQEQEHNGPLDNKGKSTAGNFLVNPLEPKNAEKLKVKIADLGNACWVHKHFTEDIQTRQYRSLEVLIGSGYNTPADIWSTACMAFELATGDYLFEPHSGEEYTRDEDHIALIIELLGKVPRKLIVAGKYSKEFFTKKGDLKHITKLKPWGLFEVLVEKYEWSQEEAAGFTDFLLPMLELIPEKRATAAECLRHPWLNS
T33 sequence (P07949 29-1114 V804L): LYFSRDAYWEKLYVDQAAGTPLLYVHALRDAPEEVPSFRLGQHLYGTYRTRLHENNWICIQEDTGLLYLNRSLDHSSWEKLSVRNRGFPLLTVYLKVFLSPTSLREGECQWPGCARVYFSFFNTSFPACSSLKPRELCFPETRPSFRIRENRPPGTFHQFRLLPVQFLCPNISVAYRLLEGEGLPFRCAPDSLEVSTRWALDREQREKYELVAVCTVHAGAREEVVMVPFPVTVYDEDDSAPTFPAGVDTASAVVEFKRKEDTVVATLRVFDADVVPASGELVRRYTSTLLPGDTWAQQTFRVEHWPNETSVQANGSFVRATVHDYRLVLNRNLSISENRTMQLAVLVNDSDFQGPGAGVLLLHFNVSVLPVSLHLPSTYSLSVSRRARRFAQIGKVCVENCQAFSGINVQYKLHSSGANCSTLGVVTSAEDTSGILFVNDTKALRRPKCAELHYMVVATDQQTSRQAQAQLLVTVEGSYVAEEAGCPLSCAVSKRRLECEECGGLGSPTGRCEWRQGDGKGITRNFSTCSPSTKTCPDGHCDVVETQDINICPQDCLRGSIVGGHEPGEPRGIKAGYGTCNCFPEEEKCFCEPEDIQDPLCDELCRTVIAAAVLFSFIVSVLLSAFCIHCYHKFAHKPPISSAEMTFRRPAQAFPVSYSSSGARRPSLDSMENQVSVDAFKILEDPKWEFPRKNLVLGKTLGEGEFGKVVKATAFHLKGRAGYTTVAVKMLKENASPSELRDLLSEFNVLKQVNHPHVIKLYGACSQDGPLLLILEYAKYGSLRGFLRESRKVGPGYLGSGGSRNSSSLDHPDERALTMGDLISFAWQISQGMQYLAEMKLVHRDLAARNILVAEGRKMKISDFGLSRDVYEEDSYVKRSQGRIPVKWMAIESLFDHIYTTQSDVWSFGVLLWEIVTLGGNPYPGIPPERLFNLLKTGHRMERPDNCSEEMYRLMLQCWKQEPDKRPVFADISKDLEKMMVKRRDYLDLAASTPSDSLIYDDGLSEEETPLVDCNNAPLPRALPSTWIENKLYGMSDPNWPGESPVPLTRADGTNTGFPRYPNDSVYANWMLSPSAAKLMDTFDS
T29 sequence (Q07002 whole entry): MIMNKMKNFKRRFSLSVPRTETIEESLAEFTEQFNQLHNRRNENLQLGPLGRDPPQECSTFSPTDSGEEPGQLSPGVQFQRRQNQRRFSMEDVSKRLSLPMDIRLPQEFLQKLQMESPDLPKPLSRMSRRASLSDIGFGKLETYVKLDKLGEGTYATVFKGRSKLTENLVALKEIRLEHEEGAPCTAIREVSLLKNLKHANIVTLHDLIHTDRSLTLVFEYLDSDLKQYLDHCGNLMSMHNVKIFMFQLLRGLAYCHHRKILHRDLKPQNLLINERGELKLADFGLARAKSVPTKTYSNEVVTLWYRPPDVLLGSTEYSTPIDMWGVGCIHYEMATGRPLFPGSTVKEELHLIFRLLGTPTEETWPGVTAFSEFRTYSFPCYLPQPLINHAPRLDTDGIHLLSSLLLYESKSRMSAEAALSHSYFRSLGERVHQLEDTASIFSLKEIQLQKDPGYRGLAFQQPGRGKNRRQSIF
T24 sequence (Q13043 whole entry): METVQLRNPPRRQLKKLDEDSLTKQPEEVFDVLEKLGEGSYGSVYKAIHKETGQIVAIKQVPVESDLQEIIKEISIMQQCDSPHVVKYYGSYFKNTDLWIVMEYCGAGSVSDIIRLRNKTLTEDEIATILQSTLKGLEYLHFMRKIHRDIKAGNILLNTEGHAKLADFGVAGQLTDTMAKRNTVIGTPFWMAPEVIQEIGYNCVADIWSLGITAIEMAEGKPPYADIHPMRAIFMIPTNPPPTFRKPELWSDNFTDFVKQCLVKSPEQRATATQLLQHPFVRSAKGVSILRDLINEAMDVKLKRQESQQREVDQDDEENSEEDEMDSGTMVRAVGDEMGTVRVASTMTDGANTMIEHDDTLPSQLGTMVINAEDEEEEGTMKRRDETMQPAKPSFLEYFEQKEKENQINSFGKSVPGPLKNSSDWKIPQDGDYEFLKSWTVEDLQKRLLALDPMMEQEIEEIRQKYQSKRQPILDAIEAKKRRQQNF
T20 sequence (Q13233 whole entry): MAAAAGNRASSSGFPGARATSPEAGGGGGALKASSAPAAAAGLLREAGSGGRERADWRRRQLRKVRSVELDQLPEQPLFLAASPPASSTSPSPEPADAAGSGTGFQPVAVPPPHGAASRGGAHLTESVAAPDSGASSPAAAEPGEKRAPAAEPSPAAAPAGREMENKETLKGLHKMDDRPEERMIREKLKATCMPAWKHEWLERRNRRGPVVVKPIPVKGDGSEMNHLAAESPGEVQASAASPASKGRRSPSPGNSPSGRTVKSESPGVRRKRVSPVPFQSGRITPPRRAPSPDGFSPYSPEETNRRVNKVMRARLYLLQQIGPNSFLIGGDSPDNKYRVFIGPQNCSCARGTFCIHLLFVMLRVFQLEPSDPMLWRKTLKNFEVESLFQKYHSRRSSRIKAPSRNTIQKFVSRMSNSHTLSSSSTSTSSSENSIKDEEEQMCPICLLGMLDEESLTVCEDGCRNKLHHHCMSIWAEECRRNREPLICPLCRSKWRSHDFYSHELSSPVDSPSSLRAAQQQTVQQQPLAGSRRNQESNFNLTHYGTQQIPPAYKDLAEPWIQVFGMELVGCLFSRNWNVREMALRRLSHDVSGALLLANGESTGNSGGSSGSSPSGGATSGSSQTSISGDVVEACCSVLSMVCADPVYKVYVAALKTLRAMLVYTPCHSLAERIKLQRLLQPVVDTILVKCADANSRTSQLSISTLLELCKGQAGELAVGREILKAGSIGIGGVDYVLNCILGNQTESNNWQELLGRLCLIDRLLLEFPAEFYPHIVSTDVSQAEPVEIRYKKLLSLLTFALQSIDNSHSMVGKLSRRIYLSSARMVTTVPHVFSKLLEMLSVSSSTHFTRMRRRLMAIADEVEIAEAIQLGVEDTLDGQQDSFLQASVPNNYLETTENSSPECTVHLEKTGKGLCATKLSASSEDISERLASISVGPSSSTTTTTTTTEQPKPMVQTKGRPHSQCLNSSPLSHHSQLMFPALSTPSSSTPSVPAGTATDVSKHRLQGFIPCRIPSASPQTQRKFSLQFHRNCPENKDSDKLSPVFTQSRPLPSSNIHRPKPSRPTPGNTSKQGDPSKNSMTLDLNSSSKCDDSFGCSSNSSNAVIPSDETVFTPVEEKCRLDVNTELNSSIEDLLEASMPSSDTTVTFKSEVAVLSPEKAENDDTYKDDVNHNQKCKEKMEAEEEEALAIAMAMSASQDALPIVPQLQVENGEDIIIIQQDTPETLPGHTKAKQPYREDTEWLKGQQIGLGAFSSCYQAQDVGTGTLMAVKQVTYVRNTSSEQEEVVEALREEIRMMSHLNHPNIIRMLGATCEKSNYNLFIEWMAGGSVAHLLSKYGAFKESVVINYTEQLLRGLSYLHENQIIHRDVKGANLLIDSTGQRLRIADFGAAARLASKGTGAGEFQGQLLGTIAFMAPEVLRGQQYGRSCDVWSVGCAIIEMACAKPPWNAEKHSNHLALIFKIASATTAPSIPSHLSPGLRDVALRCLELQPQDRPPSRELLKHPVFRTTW

## CN1CCN(C2CCC(n3cc(-c4ccc(Oc5ccccc5)cc4)c4c(N)ncnc43)CC2)CC1 (centres unmarked) [A-419259]
[1]
  % Control: 100%
[2]
  % Control: 92%
[3]
  % Control: 43%
[4]
  % Control: 36%
[5]
  % Control: 100%
[6]
  % Control: 30%
[7]
  % Control: 66%
[8]
  % Control: 97%
[9]
  % Control: 84%
[10]
  % Control: 100%
[11]
  % Control: 21%
[12]
  % Control: 100%
[13]
  % Control: 99%
[14]
  % Control: 82%
[15]
  % Control: 62%
[16]
  % Control: 0.15%
[17]
  % Control: 3.4%
[18]
  % Control: 79%
[19]
  % Control: 0.05%
[20]
  % Control: 92%
[21]
  % Control: 58%
[22]
  % Control: 100%
[23]
  % Control: 98%
[24]
  % Control: 34%
[25]
  % Control: 92%
[26]
  % Control: 55%
[27]
  % Control: 84%
[28]
  % Control: 59%
[29]
  % Control: 100%
[30]
  % Control: 89%
[31]
  % Control: 100%
[32]
  % Control: 94%
[33]
  % Control: 24%
[34]
  % Control: 77%
[35]
  % Control: 0.1%
[36]
  % Control: 100%
[37]
  % Control: 27%
[38]
  % Control: 100%
[39]
  % Control: 100%
[40]
  % Control: 15%
[41]
  % Control: 63%
